According to ChEMBL document CHEMBL1126932, “Mechanism-based inhibitors of prostaglandin omega-hydroxylase: (R)- and (S)-12-hydroxy-16-heptadecynoic acid and 2,2-dimethyl-12-hydroxy-16-heptadecynoic acid” (J Med Chem, 1993):

What follows are compounds tested against T1, Cytochrome P450 4A4 (Oryctolagus cuniculus, UniProt P10611) (assay: Inactivation of prostaglandin E1 omega-hydroxylase (Cytochrome P450 4A4) in rabbit lung).
T1 sequence (P10611 whole entry): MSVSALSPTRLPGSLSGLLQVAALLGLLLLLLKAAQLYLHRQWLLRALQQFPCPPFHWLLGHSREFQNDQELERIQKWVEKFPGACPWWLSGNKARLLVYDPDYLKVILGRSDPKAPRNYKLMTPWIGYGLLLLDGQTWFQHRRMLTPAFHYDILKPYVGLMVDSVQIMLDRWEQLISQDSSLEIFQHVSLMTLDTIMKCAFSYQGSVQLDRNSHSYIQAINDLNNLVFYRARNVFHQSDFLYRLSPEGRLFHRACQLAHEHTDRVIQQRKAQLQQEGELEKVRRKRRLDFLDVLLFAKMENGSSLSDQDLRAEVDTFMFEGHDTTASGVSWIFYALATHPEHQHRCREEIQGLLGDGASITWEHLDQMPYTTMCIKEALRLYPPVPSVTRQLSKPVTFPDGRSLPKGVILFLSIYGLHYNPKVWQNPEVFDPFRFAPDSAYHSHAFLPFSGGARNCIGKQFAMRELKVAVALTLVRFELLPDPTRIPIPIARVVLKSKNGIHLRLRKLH
Type: tissue-based

SMILES | Ki [µM]
C#CCCC[C@@H](O)CCCCCCCCCCC(=O)O | 1.8
C#CCCCC(O)CCCCCCCCCC(C)(C)C(=O)O (centres undefined) | 4.9
C#CCCC[C@H](O)CCCCCCCCCCC(=O)O | 3.6
C#CCCCC(O)CCCCCCCCCCC(=O)O (racemic) | 4.8
